Values after ≈ are worked out from the molar mass of the structure shown.

The conditions of this series: buffer; pH 7.4; 200.0 µM.
`CN(C)c1nc(N(C)C)nc(N2CC(=O)N(c3ccccc3)C2=N)n1` registered a solubility (kinetic) of 8.4 µg/mL (≈ 24.7 µM).

For `CC(C)N(Cc1ccccc1)C(=S)NCc1ccccc1`, the kinetic solubility is 19.4 µg/mL (≈ 65 µM).

For the compound `Cc1ccc(NC(=O)C2CC(=O)N(CCc3ccccc3)C2)c(C)c1` (stereo unspecified), the kinetic solubility was determined as 42 µg/mL (≈ 125 µM).

Compound `CC1CCCC(NC(=O)c2ccc3c(c2)OCO3)C1C` (stereo unspecified) gave a solubility (kinetic) above 41.3 µg/mL.

Compound `COc1ccccc1C(=O)Nc1c[nH]c(=O)[nH]c1=O` came in with a kinetic solubility of 3.4 µg/mL (≈ 13 µM).

For `OC(CNCc1ccc2c(c1)OCO2)COc1ccc(F)cc1` (stereo unspecified), the kinetic solubility is above 47.9 µg/mL.

In the case of `CC(C)c1ccc(NC(=S)NCc2ccc3c(c2)OCO3)cc1`, the solubility (kinetic) is 4.9 µg/mL (≈ 14.9 µM).

Consider `COc1ccc(-c2nc3ncccc3o2)cc1NC(=O)c1cccs1`, for which the kinetic solubility came out at 0.3 µg/mL (≈ 0.854 µM).

`CCOC(=O)c1c(/N=C/c2cccc([N+](=O)[O-])c2O)sc2c1CCC2` displayed a solubility (kinetic) of 49.9 µg/mL (≈ 138 µM).

As for `Cc1cc(Nc2cccc([N+](=O)[O-])c2)c2cccc(C)c2n1.Cl`, the kinetic solubility was determined as 5.5 µg/mL.

For `Cc1cc(NC(=O)CCl)no1`, the kinetic solubility is above 26.2 µg/mL.

`CC(NC(=S)NC(=O)c1ccccc1Br)c1ccccc1` (stereo unspecified) returned a solubility (kinetic) of 4.9 µg/mL (≈ 13.5 µM).

`O=C1CCCC(O)=C1N=Nc1ccc(C(=O)O)cc1` displayed a solubility (kinetic) above 39 µg/mL.

For the compound `N#C/C(=C\c1ccccc1O)C(=O)Nc1cccnc1`, the solubility (kinetic) worked out at 2.6 µg/mL (≈ 9.8 µM).

Compound `O=C(Cc1ccccc1)Oc1coc(CSc2ncccn2)cc1=O` registered a solubility (kinetic) above 53.2 µg/mL.

The compound `COc1cc2c(cc1OC)-c1cc(Nc3cccc(C)c3)nc(=O)n1CC2` yielded a kinetic solubility of 2.5 µg/mL (≈ 6.88 µM).

In the case of `COc1ccc(C(=O)Nc2cnccn2)cc1[N+](=O)[O-]`, the solubility (kinetic) was determined as 13.9 µg/mL (≈ 50.7 µM).

In the case of `C=C(C)[C@@H]1CC=C(CN2CCC(CCOC)(C(=O)OCC)CC2)CC1`, the solubility (kinetic) was determined as 38.7 µg/mL (≈ 111 µM).

For the compound `Cc1ccsc1/C=C(\CC(=O)O)c1nc2ccccc2o1`, the kinetic solubility was above 44.9 µg/mL.

Take `O=C(N/C(=C\c1ccco1)C(=O)N1CCCC1)c1ccccc1`: the solubility (kinetic) stood at 41.6 µg/mL (≈ 134 µM).

`O=c1c2ccccc2sn1-c1nccs1` registered a kinetic solubility of 1.4 µg/mL (≈ 5.98 µM).

On to `COC(=O)c1cc(NC(=O)Cc2cccs2)cc(C(=O)OC)c1`, for which the kinetic solubility was found to be 19.5 µg/mL (≈ 58.5 µM).

For the compound `CSc1ncccc1C(=O)Nc1ccc2c(c1)OCO2`, the kinetic solubility is 30.8 µg/mL (≈ 107 µM).

Turning to `O=C(c1ccc([N+](=O)[O-])s1)N1CCc2ccccc21`, the solubility (kinetic) was below 0.3 µg/mL.

Regarding `CC(=O)c1c(-c2ccccc2)c2cc([N+](=O)[O-])ccc2[nH]c1=O`, the solubility (kinetic) stood at 16.3 µg/mL (≈ 52.9 µM).

In turn, `O=C(Nc1cccnc1)NC1CCCCC1` gave a kinetic solubility above 32.9 µg/mL.

For the compound `O=C(CCc1ccc(S(=O)(=O)N2CCOCC2)cc1)OCC(=O)c1ccccc1`, the solubility (kinetic) came out at 7.6 µg/mL (≈ 18.2 µM).

`CCOc1ccc(OCC)c(S(=O)(=O)n2ccnc2C)c1` came in with a kinetic solubility of 19.7 µg/mL (≈ 63.5 µM).

As to `O=c1cc(NCc2ccccc2)[nH]c(=O)[nH]1`, the solubility (kinetic) is above 32.6 µg/mL.

`O=C(Nc1cccc(NC(=O)c2cccnc2)c1)c1ccccc1` showed a solubility (kinetic) of 21.9 µg/mL (≈ 69 µM).

For the compound `O=C1NCCSC1c1ccccc1` (stereo unspecified), the kinetic solubility is above 29 µg/mL.

`Cc1ccc(NC(=O)C/C(N)=N/O)cc1Cl`: the solubility (kinetic) is above 36.3 µg/mL.

`Cc1nc2ccc(NS(=O)(=O)c3ccc(F)cc3)cc2s1`: the kinetic solubility was determined as 44.3 µg/mL (≈ 137 µM).

In turn, `CCOc1ccc(Cl)cc1S(=O)(=O)NCc1ccccn1` yielded a solubility (kinetic) above 49 µg/mL.

The compound `NC(=O)C1CCN(C(=O)CCSCc2ccccc2)CC1` gave a kinetic solubility above 46 µg/mL.

The compound `O=C1c2ccccc2NC(c2ccccc2)N1Cc1ccccc1` (stereo unspecified) registered a kinetic solubility of 7.9 µg/mL (≈ 25.1 µM).

Regarding `CN(C)CC(c1ccccc1)c1ccccc1.Cl`, the solubility (kinetic) worked out at 34.3 µg/mL.

As for `CSc1ncc(C(=O)Nc2ccccc2)cn1`, the kinetic solubility was above 36.8 µg/mL.

Take `CC1(C)CC2(CCO1)OC(=O)CC2C(=O)Nc1c(Cl)cccc1Cl` (stereo unspecified): the solubility (kinetic) stood at 52.9 µg/mL (≈ 142 µM).

The compound `Cc1ccc(-c2cc(-c3ccco3)c(C#N)c(=O)[nH]2)cc1` returned a solubility (kinetic) of 2.6 µg/mL (≈ 9.41 µM).

In the case of `Cc1ccccc1-n1c(O)c(/C=N/NC(=O)c2ccncc2)c(=O)[nH]c1=O`, the solubility (kinetic) is above 54.8 µg/mL.

The term kinetic solubility denotes the concentration staying in solution when a stock, usually in DMSO, is diluted into the medium.

Values taken from PubChem BioAssay AID1996.
